Data from ChEMBL document CHEMBL3046079, “Synthesis, herbicidal activity, and mode of action of IR 5790” (J Agric Food Chem, 2001).
Converted amounts (≈) assume the structure as drawn.

How the values were obtained:
[1] = Solubility of the compound in organis solvent; format: physicochemical
[2] = Aqueous solubility of the compound; format: physicochemical; settings: water
[3] = molecular target: T1, Putative protoporphyrinogen IX oxidase (Cucumis sativus) (UniProt C6L817); test: Inhibition of protoporphyrin oxidase in Cucumis sativus (cucumber) cotyledon disc assessed as increase in extraplastidic protoporphyrin 9 accumulation at 100 uM incubated in dim light for 2 hr by HPLC analysis relative to control
T1 sequence (whole entry): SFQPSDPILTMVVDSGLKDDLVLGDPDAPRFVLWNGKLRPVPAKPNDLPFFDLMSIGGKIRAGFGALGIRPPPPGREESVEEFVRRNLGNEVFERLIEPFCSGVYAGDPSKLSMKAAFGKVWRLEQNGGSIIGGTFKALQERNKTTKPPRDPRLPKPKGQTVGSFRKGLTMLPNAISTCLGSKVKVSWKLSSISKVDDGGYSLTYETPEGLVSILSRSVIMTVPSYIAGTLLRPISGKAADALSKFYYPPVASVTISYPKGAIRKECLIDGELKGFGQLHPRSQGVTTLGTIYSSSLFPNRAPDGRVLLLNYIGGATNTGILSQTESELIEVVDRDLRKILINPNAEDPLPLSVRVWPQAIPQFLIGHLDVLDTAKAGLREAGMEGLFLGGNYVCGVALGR

[4] = molecular target: T1, Putative protoporphyrinogen IX oxidase (Cucumis sativus); test: Inhibition of protoporphyrin oxidase in Cucumis sativus (cucumber) cotyledon disc assessed as increase in extraplastidic protoporphyrin 9 accumulation at 10 uM incubated in dim light for 2 hr by HPLC analysis relative to control

SMILES: C#CCOc1cc(-n2nc(C(C)(C)C)oc2=O)c(Cl)cc1Cl [OXADIARGYL]
- solubility [1]: > 250000 µg/mL
- solubility [2]: 0.37 µg/mL (≈ 1.08 µM)

SMILES: CC(C)Oc1cc(-n2nc(C(C)(C)C)oc2=O)c(Cl)cc1Cl [OXADIAZON]
- solubility [1]: > 250000 µg/mL
- solubility [2]: 0.7 µg/mL (≈ 2.03 µM)

SMILES: COC(=O)c1cc(Oc2ccc(C(F)(F)F)cc2Cl)ccc1[N+](=O)[O-]
- fold change (FC) [3]: 390
- fold change (FC) [4]: 369
